The results in this text go back to patent US20250034173A1, “PYRIDO[4,3-D]PYRIMIDINE COMPOUNDS” (PFIZER INC., priority 2023, published 2025).

One assay addresses KRAS Wild Type (Homo sapiens (Human), UniProt P01116). Briefly: SPR binding affinity and kinetics, GTPγS-loaded KRAS Wild Type. Conditions: GTPγS loaded protein, geomean. From the text: (§1) No additional regeneration was used.
(§2) Compound dissociation was monitored for at least 3600 seconds. […] No additional regeneration was used.
(§3) The adequateness of the fit was judged by c2 values and the randomness of residue distribution.

Another assay addresses KRAS G12D (Homo sapiens (Human), UniProt P01116, G12D). Briefly: SPR binding affinity and kinetics, GTPγS-loaded KRAS G12D. Conditions: GTPγS loaded protein, geomean.
Source text: as §1, §2, §3

For assay [1], the system named is PANC08.13 (pancreatic cancer cell line). Nature of the assay: KRAS Cell Titer Glo (CTG) cell proliferation assay, PANC08.13. The format is cell-based. Conditions: PANC08.13 cells, 7-day CTG, geomean IC50. From the text: (§4) The CellTiter-Glo® (CTG) Luminescent Cell Viability Assay is a homogeneous method of determining the number of viable cells in culture based on quantitation of the ATP present, an indicator of metabolically active cells. The CTG is designed for use with multi-well formats, making it ideal for automated high-throughput screening (HTS), cell proliferation and cytotoxicity assays. The homogeneous assay procedure involves adding the single reagent (CellTiter-Glo® Reagent) directly to cells cultured in serum-supplemented medium. Cell washing, removal of medium and multiple pipetting steps are not required. The system detects as few as 15 cells per well in a 384-well format in 10 minutes after adding reagent and mixing.
(§5) Cells are grown in humidified 5% CO2 incubator at 37° C. using the culture conditions outlined below. All cell culture media reagents were purchased from Gibco. Cell lines purchased from ATCC: H358 (non-small cell lung cancer cell line), SW620 (colorectal cancer cell line), PANC08.13 (RPM11640+10% FBS+10 units/mL Insulin, pancreatic cancer cell line). Test and control compounds are dispensed as nanoliter drops according to desired final concentrations in 0.1% DMSO using Echo Acoustic Dispenser onto 384 assay plates (Corning, Cat #3764) prior to cell seeding. Cells were seeded in 40 μL volume per well at the following cell densities (cells per well): H358 (300), SW620 (750), PANC 08.13 (600). Cells are incubated in the presence of compound for 7-days. Viability is determined on Day 7 using CellTiter-Glo® (CTG) Luminescent Cell Viability Assay (Promega). CTG is added to a […] per well and incubated at room temperature for 15 minutes before luminescence is captured using an EnVision Reader with LUM384 US protocol. Data is analyzed using Activity Base to determine compound response and will be represented either as a percent effect (PCTEFF) or percent control (PCTOCTL) as described: Zero percent effect control (ZPE) (Negative control)—100% DMSO. Hundred percent effect (HPE) (Positive control)—1 uM Trametinib (GSK1120212, MEK inhibitor) (4 nl of 10 mM and 36 nl of DMSO per well). The following equations/nomenclature are used (% Effect; PCTEFF) and (% of Control; PCTOCTL): PCTEFF: 100*(Raw_Data_Value−HPE/ZPE−HPE), PCTOCTL: 100*Raw_Data_Value/User_Defined_Array), where the User_Defined_Array is either summarized HPE or ZPE.
(§6) Cells with “nd” indicate compound not tested in that particular assay at time of writing. It is to be understood that the geomean IC50 data may change slightly over time with increasing repeat data (ie: increasing n #).

The target of the next assay is KRAS G12V (Homo sapiens (Human), UniProt P01116, G12V). Briefly: SPR binding affinity and kinetics, GTPγS-loaded KRAS G12V. As to conditions: GTPγS loaded protein, geomean.
Source text: as §1, §2, §3
A general note: Surface plasmon resonance follows binding to a sensor surface in real time, without labels.

The next assay concerns the target KRAS G12C (Homo sapiens (Human), UniProt P01116, G12C). Briefly: SPR binding affinity and kinetics, GTPγS-loaded KRAS G12C. Conditions: GTPγS loaded protein, geomean.
Source text: as §1, §2, §3

The test system of assay [2] is SW620 (colorectal cancer cell line). Briefly: KRAS Cell Titer Glo (CTG) cell proliferation assay, SW620. The class given is cell-based. Conditions: SW620 cells, 7-day CTG, geomean IC50.
Source text: as §4, §5, §6
(In ATP-based viability assays light output follows the ATP content of the culture.)

Assay [3] relates to H358 (non-small cell lung cancer cell line). Briefly: KRAS Cell Titer Glo (CTG) cell proliferation assay, H358. The format is cell-based. As to conditions: H358 cells, 7-day CTG, geomean IC50.
Source text: as §4, §5, §6

The mark [4] stands for this setting: Homo sapiens, PANC-08-13, 168 h.

Broadly, the Kd is the free concentration of one partner at which half of the binding sites on the other are occupied at equilibrium, for simple one-to-one binding. By IC50 is commonly meant the concentration at which inhibition is half-maximal. A high value points to weaker potency in that assay. Take “(8aS)-5-(5-chloro-6-fluoro-1H-indazol-4-yl)-4-fluoro-2-{[(7aS)-2-methylidenetetrahydro-1H-pyrrolizin-7a(5H)-yl]methoxy}-8a,9,12,13-tetrahydro-8H,11H-7,10-dioxa-1,3,6,13a-tetraazanaphtho[1,8-ab]heptalene [Example 9]”: the Kd at KRAS Wild Type stood at 389 nM; at KRAS G12D, 270 nM; at KRAS G12V, 303 nM; on KRAS G12C, 430 nM. Moreover, the IC50 in assay [1] was 140 nM; in assay [2], 914 nM; in assay [3], 758 nM.
Turning to `C=C1CN2CCC[C@@]2(COc2nc3c4c(nc(-c5c(CC)c(Cl)cc6[nH]ncc56)c(F)c4n2)OC[C@@H]2COCCCN32)C1` [Example 33, (8aS)-5-(6-chloro-5-ethyl-1H-indazol-4-yl)-4-fluoro-2-{[(7aS)-2-methylidenetetrahydro-1H-pyrrolizin-7a(5H)-yl]methoxy}-8a,9,12,13-tetrahydro-8H,11H-7,10-dioxa-1,3,6,13a-tetraazanaphtho[1,8-ab]heptalene], the Kd at KRAS Wild Type is 8 nM; at KRAS G12D it was 6 nM; on KRAS G12V it was 6 nM; on KRAS G12C, 6 nM. The IC50 in assay [1] (setting [4]) was found to be 18 nM; in assay [2] (Homo sapiens, SW-620, 168 h) it was 103 nM; in assay [3] (Homo sapiens, NCI-H358, 168 h), 58 nM.
Regarding `C/C=C1/CN2CCC[C@@]2(COc2nc3c4c(nc(-c5c(C6CC6)c(Cl)cc6[nH]ncc56)c(F)c4n2)OC[C@@H]2COCCCN32)C1` [Example 27, (8aS)-5-(6-chloro-5-cyclopropyl-1H-indazol-4-yl)-2-{[(2E,7aS)-2-ethylidenetetrahydro-1H-pyrrolizin-7a(5H)-yl]methoxy}-4-fluoro-8a,9,12,13-tetrahydro-8H,11H-7,10-dioxa-1,3,6,13a-tetraazanaphtho[1,8-ab]heptalene], the equilibrium dissociation constant (Kd) at KRAS Wild Type came out at 9 nM; at KRAS G12D it was 4 nM; on KRAS G12V it was 6 nM; at KRAS G12C, 3 nM. In addition, the IC50 came out at 9 nM in assay [1] (setting [4]); 74 nM in assay [2] (Homo sapiens, SW-620, 168 h); 72 nM in assay [3] (Homo sapiens, NCI-H358, 168 h).
Regarding `Fc1c(-c2c(C3CC3)c(Cl)cc3[nH]ncc23)nc2c3c(nc(OC[C@@]45CCCN4CC(=C4CC4)C5)nc13)N1CCCOC[C@H]1CO2` [Example 40, (8aS)-5-(6-chloro-5-cyclopropyl-1H-indazol-4-yl)-2-{[(7aS)-2-cyclopropylidenetetrahydro-1H-pyrrolizin-7a(5H)-yl]methoxy}-4-fluoro-8a,9,12,13-tetrahydro-8H,11H-7,10-dioxa-1,3,6,13a-tetraazanaphtho[1,8-ab]heptalene], the Kd at KRAS Wild Type stood at 6 nM; on KRAS G12D it was 4 nM; on KRAS G12V, 6 nM; on KRAS G12C it was 7 nM. Further, the IC50 in assay [1] (setting [4]) worked out at 13 nM; in assay [2] (Homo sapiens, SW-620, 168 h), 60 nM; in assay [3] (Homo sapiens, NCI-H358, 168 h), 52 nM.
In the case of `F/C=C1/CN2CCC[C@@]2(COc2nc3c4c(nc(-c5c(C6CC6)c(Cl)cc6[nH]ncc56)c(F)c4n2)OC[C@@H]2COCCCN32)C1` [Example 15, (8aS)-5-(6-chloro-5-cyclopropyl-1H-indazol-4-yl)-4-fluoro-2-{[(2E,7aS)-2-(fluoromethylidene)tetrahydro-1H-pyrrolizin-7a(5H)-yl]methoxy}-8a,9,12,13-tetrahydro-8H,11H-7,10-dioxa-1,3,6,13a-tetraazanaphtho[1,8-ab]heptalene], the Kd at KRAS Wild Type was 4 nM; on KRAS G12D, 2 nM; at KRAS G12V, 4 nM; on KRAS G12C, 5 nM. Besides, the half-maximal inhibitory concentration (IC50) in assay [1] (setting [4]) was found to be 3 nM; in assay [2] (Homo sapiens, SW-620, 168 h) it was 31 nM; in assay [3] (Homo sapiens, NCI-H358, 168 h) it was 30 nM.
For `Fc1c(-c2c(C3CC3)c(Cl)cc3[nH]ncc23)nc2c3c(nc(OC[C@@]45CCCN4CC4(CC4)C5)nc13)N1CCCOC[C@H]1CO2` [Example 18, (8aS)-2-{[(7′aS)-dihydro-1′H,3′H-spiro[cyclopropane-1,2′-pyrrolizin]-7′a(5′H)-yl]methoxy}-5-(6-chloro-5-cyclopropyl-1H-indazol-4-yl)-4-fluoro-8a,9,12,13-tetrahydro-8H,11H-7,10-dioxa-1,3,6,13a-tetraazanaphtho[1,8-ab]heptalene], the dissociation constant (Kd) on KRAS Wild Type was determined as 61 nM; on KRAS G12D, 34 nM; at KRAS G12V, 61 nM; on KRAS G12C it was 64 nM. Also, the IC50 in assay [1] (setting [4]) amounted to 68 nM; in assay [2] (Homo sapiens, SW-620, 168 h), 479 nM; in assay [3] (Homo sapiens, NCI-H358, 168 h), 304 nM.
Take `COC/C=C1\CN2CCC[C@@]2(COc2nc3c4c(nc(-c5c6c(cc7[nH]ncc57)CCC[C@H]6OC)c(F)c4n2)OC[C@@H]2COCCCN32)C1` (relative stereo) [Example 59, (8aS)-4-fluoro-2-{[(2Z,7aS)-2-(2-methoxyethylidenetetrahydro-1H-pyrrolizin-7a(5H)-yl]methoxy}-5-[(5R*)-5-methoxy-5,6,7,8-tetrahydro-1H-benzo[f]indazol-4-yl]-8a,9,12,13-tetrahydro-8H,11H-7,10-dioxa-1,3,6,13a-tetraazanaphtho[1,8-ab]heptalene]: the Kd at KRAS Wild Type, on KRAS G12D, at KRAS G12V and on KRAS G12C was more than 1000 nM each time.
`C=C1CN2CCC[C@@]2(COc2nc3c4c(nc(-c5c6c(cc7[nH]ncc57)CCC[C@H]6OC)c(F)c4n2)OC[C@@H]2COCCCN32)C1` (single isomer, unassigned) [Example 57, (8aS)-4-fluoro-5-[(5R*)-5-methoxy-5,6,7,8-tetrahydro-1H-benzo[f]indazol-4-yl]-2-{[(7aS)-2-methylidenetetrahydro-1H-pyrrolizin-7a(5H)-yl]methoxy}-8a,9,12,13-tetrahydro-8H,11H-7,10-dioxa-1,3,6,13a-tetraazanaphtho[1,8-ab]heptalene]: the Kd on KRAS Wild Type, on KRAS G12D, at KRAS G12V and at KRAS G12C was more than 1000 nM throughout.
Consider `COC/C=C1/CN2CCC[C@@]2(COc2nc3c4c(nc(-c5c(C6CC6)c(Cl)cc6[nH]ncc56)c(F)c4n2)OC[C@@H]2COCCCN32)C1` (relative stereo) [Example 49, (8aS)-5-(6-chloro-5-cyclopropyl-1H-indazol-4-yl)-4-fluoro-2-{[(2E,7aR*)-2-(2-methoxyethylidene)tetrahydro-1H-pyrrolizin-7a(5H)-yl]methoxy}-8a,9,12,13-tetrahydro-8H,11H-7,10-dioxa-1,3,6,13a-tetraazanaphtho[1,8-ab]heptalene], for which the Kd on KRAS Wild Type amounted to 63 nM; at KRAS G12D, 41 nM; at KRAS G12V, 58 nM; on KRAS G12C it was 73 nM.
For `COC/C=C1/CN2CCC[C@@]2(COc2nc3c4c(nc(-c5c(C6CC6)c(Cl)cc6[nH]ncc56)c(F)c4n2)OC[C@@H]2COCCCN32)C1` (relative stereo) [Example 48, (8aS)-5-(6-chloro-5-cyclopropyl-1H-indazol-4-yl)-4-fluoro-2-{[(2E,7aS*)-2-(2-methoxyethylidene)tetrahydro-1H-pyrrolizin-7a(5H)-yl]methoxy}-8a,9,12,13-tetrahydro-8H,11H-7,10-dioxa-1,3,6,13a-tetraazanaphtho[1,8-ab]heptalene] the same measures were 65 nM, 35 nM, 41 nM and 72 nM.
